Experimental data from ChEMBL document CHEMBL4118116, “Benzoxazine derivatives of phytophenols show anti-plasmodial activity via sodium homeostasis disruption” (Bioorg Med Chem Lett, 2018).
The source made the active and inactive calls. The calls are words filed in the database; no cut-off is given here.

Key:
HepG2 = experiment: Cytotoxicity against human HepG2 cells assessed as reduction in cell viability at 50 uM after 24 hrs by MTT assay; format: cell-based; conditions: hepg2, 24 h
[1] = tested on: Plasmodium falciparum 3D7; experiment: Inhibition of P-type cation ATPase ATP4 in trophozoite stage of Plasmodium falciparum 3D7 infected in human erythrocytes assessed as increase in Na+/- levels at 50 uM by sodium green dye based microscopic analysis; format: cell-based
Plasmodium falciparum [2] = experiment: Growth inhibition of schizont stage Plasmodium falciparum 3D7 infected in human erythrocytes at 50 uM after 46 hrs by ethidium bromide staining based flow cytometric analysis relative to control; format: functional; conditions: 3D7, 46 h, read-out: GI
Plasmodium falciparum [3] = experiment: Growth inhibition of schizont stage Plasmodium falciparum 3D7 infected in human erythrocytes at 10 uM after 46 hrs by ethidium bromide staining based flow cytometric analysis relative to control; format: functional; conditions: 3D7, 46 h, read-out: GI
Plasmodium falciparum [4] = experiment: Antiplasmodial activity against late trophozoite stage of Plasmodium falciparum 3D7 infected in human erythrocytes measured after 46 hrs by ethidium bromide staining based flow cytometric analysis; format: functional, organism-based; conditions: for EC50: 3D7, 46 h
Plasmodium falciparum [5] = experiment: Induction of mitochondrial membrane potential loss in trophozoite stage of Plasmodium falciparum 3D7 infected in human erythrocytes assessed as decrease in JC1 red to JC1 green ratio at 50 uM by JC1 staining based microscopic analysis; format: functional, organism-based
[6] = tested on: Plasmodium falciparum 3D7; experiment: (§1) Inhibition of P-type cation ATPase ATP4 in trophozoite stage of Plasmodium falciparum 3D7 infected in human erythrocytes assessed as swelling of intraerythrocytic parasites by measuring diameter of parasitized RBC at 50 uM after 4 hrs by sodium green dye based microscopic analysis (reference value: 5.03 micrometer); format: cell-based
[7] = tested on: Plasmodium falciparum 3D7; experiment: as §1, with “parasite” for “parasitized RBC”, “3.5” for “5.03”; format: cell-based
Plasmodium falciparum [8] = experiment: Antiplasmodial activity against late trophozoite stage of Plasmodium falciparum 3D7 infected in human erythrocytes measured after 46 hrs in presence of graphene oxide 1 by ethidium bromide staining based flow cytometric analysis; format: functional, organism-based; conditions: 3D7, 46 h
Plasmodium falciparum [9] = experiment: Antiplasmodial activity against late trophozoite stage of Plasmodium falciparum 3D7 infected in human erythrocytes measured after 46 hrs in presence of graphene oxide 2 by ethidium bromide staining based flow cytometric analysis; format: functional, organism-based; conditions: 3D7, 46 h
Plasmodium falciparum [10] = experiment: Ratio of EC50 for antiplasmodial activity against late trophozoite stage of Plasmodium falciparum 3D7 infected in human erythrocytes to EC50 for antiplasmodial activity against late trophozoite stage of Plasmodium falciparum 3D7 infected in human erythrocytes in presence of graphene oxide 2; format: functional

Row | Structure (SMILES) | Activity (HepG2) | inhibition [1] | inhibition of growth at 50 µM (Plasmodium falciparum [2]) | inhibition of growth at 10 µM (Plasmodium falciparum [3]) | Activity (Plasmodium falciparum [4]) | EC50 (Plasmodium falciparum [4]) | Activity (Plasmodium falciparum [5]) | Activity [6] | Activity [7] | EC50 (Plasmodium falciparum [8]) | EC50 (Plasmodium falciparum [9]) | Ratio EC50 (Plasmodium falciparum [10])
1 | C/C=C/c1ccc(O)c(OC)c1 | Non-Toxic |  |  |  |  |  |  |  |  |  |  | 
2 | C=CCc1cc2c(c(OC)c1)OCN(Cc1ccco1)C2 | Non-Toxic | Active | 58.5% | 4.7% | Dose-dependent effect | 22 µM | Active |  |  |  |  | 
3 | C=CCc1ccc(O)c(OC)c1 [EUGENOL] | Non-Toxic |  |  |  |  |  |  |  |  |  |  | 
4 | C/C=C/c1cc2c(c(OC)c1)OCN(Cc1ccco1)C2 | Non-Toxic | Active | 73% | 14.9% | Dose-dependent effect | 17.5 µM | Active | 6.3 µm | 4.4 µm | 7.19 µM | 0.49 µM | 36
